Reference: patent US20260001928A1 (CORTERIA PHARMACEUTICALS, priority 2022, published 2026)
*1 amine or outer side, *2 acyl side, *3 side chain or, on linkers, in order; H or OH if unused. Where a SMILES comes first, the peptide text is derived from it. Side-chain parts run from the residue outwards. [ ]: non-standard residue; d: D form. The star is where a group is joined. C20 diacid = O=C(O)CCCCCCCCCCCCCCCCCCC(=O)*; C18 diacid = O=C(O)CCCCCCCCCCCCCCCCC(=O)*; C16 diacid = O=C(O)CCCCCCCCCCCCCCC(=O)*; γGlu = O=C(O)[C@H](CCC(=O)[*:2])N[*:1]; NMeI = CC[C@H](C)[C@H](NC)C(=O)O; αMeL = CC(C)C[C@](C)(N)C(=O)O; Abu = CC[C@H](N)C(=O)O; AEEA = NCCOCCOCC(=O)O; Aib = CC(C)(N)C(=O)O

Tests used:
[1] = Chemical stability in buffer (pH 7.4 / pH 4.5), % purity loss; format: physicochemical; conditions: 40° C. vs 5° C., 14 or 28 days; for Buffer stability pH 4.5 % purity loss: 100 mM acetate buffer pH 4.5; for Buffer stability pH 7.4 % purity loss: 100 mM phosphate buffer pH 7.4
Protocol: Solubility and chemical stability were studied in 100 mM phosphate buffer (pH 7.4) and 100 mM acetate buffer (pH 4.5). Test compound powders were dissolved in both buffers at a target concentration of 10 mg/mL and incubated for 1 hour at room temperature. After centrifugation at 2500 rcf for 15 minutes, 10 μL of supernatant was diluted with 190 μL of the incubation buffer and analyzed by LC-UV (Acquity UPLC-DAD, Waters). Solubility was calculated by comparing the peak area of the test compound in the buffer sample with the peak area of the same compound dissolved at 0.5 mg/mL in water:acetonitrile 1:1, 0.1% formic acid.
From the centrifuged supernatant, two additional 80 μL aliquots were collected and diluted with 160 μL of incubation buffer. One aliquot was stored at 5° C., while the other was stored at 40° C. After 14 or 28 days, the samples were analyzed by LC-UV. Chemical stability was calculated as % loss using the following equations: […]

CFR1R receptor = target: T1, CFR1R receptor (Homo sapiens, UniProt P34998); assay: Activity at anti-target CFR1R receptor, cAMP assay in CRF1R-overexpression CHO-K1 cells; format: cell-based; conditions: 100% = Sauvagine at 100 nM; for EC50: cAMP
T1 construct: host or cells: CHO-K1 (clone 2)
T1 sequence (P34998 24-415): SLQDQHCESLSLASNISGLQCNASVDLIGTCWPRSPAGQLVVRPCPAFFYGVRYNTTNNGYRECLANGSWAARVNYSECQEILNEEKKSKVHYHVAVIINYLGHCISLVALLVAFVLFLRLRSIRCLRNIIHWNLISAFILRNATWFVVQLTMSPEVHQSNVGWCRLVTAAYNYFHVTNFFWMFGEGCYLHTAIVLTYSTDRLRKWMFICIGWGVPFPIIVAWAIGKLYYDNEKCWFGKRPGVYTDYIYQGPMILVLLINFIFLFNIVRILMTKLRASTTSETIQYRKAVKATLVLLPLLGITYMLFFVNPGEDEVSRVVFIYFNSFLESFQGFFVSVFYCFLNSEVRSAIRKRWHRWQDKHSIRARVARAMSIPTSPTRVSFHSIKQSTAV
Procedure, shortened: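 Clone 2 cells were cultured in F12 (Hams)/10% FBS/400 μg/ml G418 at 37° C./5% CO2, frozen in medium with 10% DMSO, and thawed vials used. The protocol followed the TeloHAEC procedure, with 4000 cells/well final and Sauvagine at 100 nM defining 100% activation.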

human CRF2a receptor = target: T2, human CRF2a receptor (Homo sapiens, UniProt Q13324); assay: Activity at human CRF2a receptor, cAMP functional assay in TeloHEAC cells; format: cell-based; conditions: TeloHEAC cells stably expressing human CRF2a receptor, relative to urocortin 2 (100 nM = 100%)
T2 construct: expressed in transfected cells; host or cells: TeloHEAC cells
T2 sequence (Q13324 1-411): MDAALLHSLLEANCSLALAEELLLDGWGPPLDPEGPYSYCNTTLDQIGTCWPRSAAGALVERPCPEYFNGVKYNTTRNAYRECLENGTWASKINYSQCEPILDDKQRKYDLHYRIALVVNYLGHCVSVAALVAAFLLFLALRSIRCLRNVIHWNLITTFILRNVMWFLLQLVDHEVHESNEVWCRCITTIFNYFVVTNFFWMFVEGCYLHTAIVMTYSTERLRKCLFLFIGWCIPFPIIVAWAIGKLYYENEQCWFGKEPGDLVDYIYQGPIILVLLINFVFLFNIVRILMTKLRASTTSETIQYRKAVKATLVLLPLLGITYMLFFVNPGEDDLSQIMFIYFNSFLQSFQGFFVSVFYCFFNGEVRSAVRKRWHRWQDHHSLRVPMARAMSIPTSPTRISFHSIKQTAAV
Procedure, shortened: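 TeloHEAC cells stably expressing human CRF2a (10000 cells/well) were treated with 16-point 1:2 compound dilutions in HBSS/20 mM HEPES with IBMX for 30 min at 37° C. cAMP was read by HTRF (665/620 nm ratio). EC50 was the concentration giving 50% activation, with 100 nM urocortin 2 set as 100%.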

Sprague Dawley rats = assay: Effect on systolic blood pressure, telemetry in Sprague Dawley rats; format: in vivo, rat; conditions: 0.1 mg/kg SC; for Systolic blood pressure (Mean) % change from baseline, 8 h / Systolic blood pressure (Mean) % change from baseline, 12 h / Systolic blood pressure (Mean) % change from baseline, 24 h: n=2; for Duration of action: last time point with an effect on BP still observed
Procedure, shortened: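 Sprague Dawley rats with abdominal-aorta telemetry catheters, recovered ≥10 days, received 0.1 mg/kg SC of compound or vehicle. Systolic pressure recorded 1 h pre-dose as baseline, then continuously up to 48 hours, expressed as % change from baseline; duration of action is last time point with a BP effect (n=2).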

Buffer stability pH 4.5 % purity loss [1] | Buffer stability pH 7.4 % purity loss [1] | Emax (% I) (CFR1R receptor) | EC50 (CFR1R receptor) | EC50 (human CRF2a receptor) | SMILES | Systolic blood pressure (Mean) % change from baseline, 8 h (Sprague Dawley rats) | Systolic blood pressure (Mean) % change from baseline, 12 h (Sprague Dawley rats) | Systolic blood pressure (Mean) % change from baseline, 24 h (Sprague Dawley rats) | Duration of action (Sprague Dawley rats)
0/0 ^ % | 0/0 ^ % | 6 % I | > 250 nM | 0.28 nM | CC[C@H](C)[C@H](NC(C)=O)C(=O)N[C@H](C(=O)N[C@@H](CC(C)C)C(=O)N[C@@H](CO)C(=O)N[C@@H](CC(C)C)C(=O)N[C@@H](CC(=O)O)C(=O)N[C@H](C(=O)N1CCC[C@H]1C(=O)N[C@H](C(=O)N[C@@H](CCCCN)C(=O)N[C@@](C)(CC(C)C)C(=O)N[C@@H](CCCCNC(=O)CC[C@H](NC(=O)CCCCCCCCCCCCCCC(=O)O)C(=O)O)C(=O)N[C@@H](CCC(N)=O)C(=O)N[C@H](C(=O)N[C@@H](CC(C)C)C(=O)N[C@@H](CC(C)C)C(=O)N[C@@H](CCCCN)C(=O)N[C@@H](CCC(N)=O)C(=O)N[C@@H](CCC(=O)O)C(=O)N[C@@H](CCCNC(=N)N)C(=O)N[C@@H](CCC(N)=O)C(=O)N[C@@H](CCCCN)C(=O)N[C@@H](CCCCN)C(=O)N[C@@H](CCC(N)=O)C(=O)N[C@@H](CCCNC(=N)N)C(=O)N[C@@H](CCC(=O)O)C(=O)N[C@@H](CCC(N)=O)C(=O)N[C@@H](C)C(=O)N[C@@H](CCC(=O)O)C(=O)N[C@@H](CCCCN)C(=O)N[C@@H](CC(N)=O)C(=O)NC(C)(C)C(=O)N[C@@H](CCC(N)=O)C(=O)N[C@H](C(=O)N[C@@H](CC(C)C)C(=O)N[C@@H](CCC(=O)O)C(=O)N[C@@H](CCC(N)=O)C(=O)N[C@H](C(N)=O)C(C)C)[C@@H](C)CC)[C@@H](C)CC)[C@@H](C)CC)C(C)C)C(C)C [compound 19] (Ac-IVLSLDVPIK[αMeL]K([γGlu-C16 diacid])QILLKQERQKKQREQAEKN[Aib]QILEQV-NH2) | −21% | 0% | 10% | 11 h
0% | 18.8% | 13 % I | > 250 nM | 0.47 nM | CC[C@H](C)[C@H](NC(=O)[C@H](CCC(N)=O)NC(=O)[C@H](CCCCN)NC(=O)[C@H](CC(N)=O)NC(=O)[C@@H](NC(=O)[C@H](CCC(=O)O)NC(=O)[C@H](C)NC(=O)[C@H](CCC(N)=O)NC(=O)[C@H](CCC(=O)O)NC(=O)[C@H](CCCNC(=N)N)NC(=O)[C@H](CCC(N)=O)NC(=O)[C@H](CCCCN)NC(=O)[C@H](CCCCN)NC(=O)[C@H](CCC(N)=O)NC(=O)[C@H](CCCCN)NC(=O)[C@H](CCC(=O)O)NC(=O)[C@H](CCC(N)=O)NC(=O)[C@H](CCC(=O)O)NC(=O)[C@H](CC(C)C)NC(=O)[C@H](CC(C)C)NC(=O)[C@@H](NC(=O)[C@H](CCCCN)NC(=O)[C@H](CCCCNC(=O)CC[C@H](NC(=O)CCCCCCCCCCCCCCC(=O)O)C(=O)O)NC(=O)[C@H](CC(C)C)NC(=O)[C@H](CCCCN)NC(=O)[C@@H](NC(=O)[C@@H]1CCCN1C(=O)[C@H](NC(=O)[C@H](CC(=O)O)NC(=O)[C@H](CC(C)C)NC(=O)[C@H](CO)NC(=O)[C@H](CC(C)C)NC(=O)[C@@H](NC(C)=O)C(C)C)C(C)C)[C@@H](C)CC)[C@@H](C)CC)[C@@H](C)O)C(=O)N[C@@H](CC(C)C)C(=O)N[C@@H](C)C(=O)N[C@@H](CCC(N)=O)C(=O)N[C@H](C(N)=O)C(C)C [compound 33] (Ac-VLSLD[dV]PIKLK([γGlu-C16 diacid])KILLEQEKQKKQREQAETNKQILAQV-NH2) | −22% | −11% | 16% | 17 h
0/0 ^ % | 0/0 ^ % | 5 % I | > 250 nM | 0.47 nM | CC[C@H](NC(=O)[C@H](CC(N)=O)NC(=O)[C@@H](NC(=O)[C@H](CCC(=O)O)NC(=O)[C@H](C)NC(=O)[C@H](CCC(N)=O)NC(=O)[C@H](CCC(=O)O)NC(=O)[C@H](CCCNC(=N)N)NC(=O)[C@H](CCC(N)=O)NC(=O)[C@H](CCCCN)NC(=O)[C@H](CCCCN)NC(=O)[C@H](CCC(N)=O)NC(=O)[C@H](CCCCN)NC(=O)[C@H](CCC(=O)O)NC(=O)[C@H](CCC(N)=O)NC(=O)[C@H](CCC(=O)O)NC(=O)[C@H](CC(C)C)NC(=O)[C@H](CC(C)C)NC(=O)[C@@H](NC(=O)[C@H](CCCCN)NC(=O)[C@H](CCCCNC(=O)COCCOCCNC(=O)COCCOCCNC(=O)CC[C@H](NC(=O)CCCCCCCCCCCCCCCCC(=O)O)C(=O)O)NC(=O)[C@H](CC(C)C)NC(=O)[C@H](CCCCN)NC(=O)[C@@H](NC(=O)[C@@H]1CCCN1C(=O)[C@H](NC(=O)[C@H](CC(=O)O)NC(=O)[C@H](CC(C)C)NC(=O)[C@H](CO)NC(=O)[C@H](CC(C)C)NC(=O)[C@@H](NC(=O)[C@@H](NC(C)=O)[C@@H](C)CC)C(C)C)C(C)C)[C@@H](C)CC)[C@@H](C)CC)[C@@H](C)O)C(=O)N[C@@H](CCC(N)=O)C(=O)N[C@H](C(=O)N[C@@H](CC(C)C)C(=O)N[C@@H](C)C(=O)N[C@@H](CCC(N)=O)C(=O)N[C@H](C(N)=O)C(C)C)[C@@H](C)CC [compound 104] (Ac-IVLSLD[dV]PIKLK([AEEA-AEEA-γGlu-C18 diacid])KILLEQEKQKKQREQAETN[Abu]QILAQV-NH2) | – | – | – | –
2.6% | 0.0% | 0 % I | > 250 nM | 0.11 nM | CC[C@H](C)[C@H](NC)C(=O)N[C@H](C(=O)N[C@@H](CC(C)C)C(=O)N[C@@H](CO)C(=O)N[C@@H](CC(C)C)C(=O)N[C@@H](CC(=O)O)C(=O)N[C@@H](C(=O)N1CCC[C@H]1C(=O)N[C@H](C(=O)N[C@@H](CCCCN)C(=O)N[C@@H](CC(C)C)C(=O)N[C@@H](CCCCNC(=O)COCCOCCNC(=O)COCCOCCNC(=O)CC[C@H](NC(=O)CCCCCCCCCCCCCCCCCCC(=O)O)C(=O)O)C(=O)N[C@@H](CCCCN)C(=O)N[C@H](C(=O)N[C@@H](CC(C)C)C(=O)N[C@@H](CC(C)C)C(=O)N[C@@H](CCC(=O)O)C(=O)N[C@@H](CCC(N)=O)C(=O)N[C@@H](CCC(=O)O)C(=O)N[C@@H](CCCCN)C(=O)N[C@@H](CCC(N)=O)C(=O)N[C@@H](CCCCN)C(=O)NC(C)(C)C(=O)N[C@@H](CCC(N)=O)C(=O)N[C@@H](CCCNC(=N)N)C(=O)N[C@@H](CCC(=O)O)C(=O)N[C@@H](CCC(N)=O)C(=O)N[C@@H](C)C(=O)N[C@@H](CCC(=O)O)C(=O)N[C@H](C(=O)N[C@@H](CC(N)=O)C(=O)NC(C)(C)C(=O)N[C@@H](CCC(N)=O)C(=O)N[C@H](C(=O)N[C@@H](CC(C)C)C(=O)N[C@@H](C)C(=O)N[C@@H](CCC(N)=O)C(=O)N[C@H](C(N)=O)C(C)C)[C@@H](C)CC)[C@@H](C)O)[C@@H](C)CC)[C@@H](C)CC)C(C)C)C(C)C [compound 239] (H-[NMeI]VLSLD[dV]PIKLK([AEEA-AEEA-γGlu-C20 diacid])KILLEQEKQK[Aib]QREQAETN[Aib]QILAQV-NH2) | – | – | – | –
